Assay results: paper PMC6010046, “Evaluation of polyphenols from Broussonetia papyrifera as coronavirus protease inhibitors” (Journal of Enzyme Inhibition and Medicinal Chemistry, 2017)
Entries after “also recorded” stand apart in the source; their conditions may differ. Read-outs that look alike come from different tables or passages of the source.

Assays:
[1] = target: SARS-CoV 3CL^pro (Severe acute respiratory syndrome coronavirus, UniProt P0C6X7); assay: biochemical
[2] = target: MERS-CoV 3CL^pro (Middle East respiratory syndrome-related coronavirus, UniProt K9N7C7); assay: biochemical
Sequence of MERS-CoV 3CL^pro (K9N7C7 3247-3553 limits assumed): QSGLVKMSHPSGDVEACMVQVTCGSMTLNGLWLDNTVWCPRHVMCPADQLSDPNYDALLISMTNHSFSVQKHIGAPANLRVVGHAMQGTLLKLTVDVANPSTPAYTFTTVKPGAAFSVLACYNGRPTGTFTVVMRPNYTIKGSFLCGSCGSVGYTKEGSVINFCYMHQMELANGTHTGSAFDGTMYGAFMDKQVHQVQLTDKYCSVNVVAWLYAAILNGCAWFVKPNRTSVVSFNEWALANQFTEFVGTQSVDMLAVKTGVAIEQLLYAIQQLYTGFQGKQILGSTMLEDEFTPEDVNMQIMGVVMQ

[3] = target: T1, SARS-CoV PL^pro (Severe acute respiratory syndrome coronavirus, UniProt P0C6X7); assay: biochemical; format: binding; details: for kon: read-out: association rate constant ka; for koff: read-out: dissociation rate constant kd
[4] = target: T1, SARS-CoV PL^pro; format: biochemical
[5] = target: MERS-CoV PL^pro (Middle East respiratory syndrome-related coronavirus, UniProt K9N7C7); assay: biochemical
Sequence of MERS-CoV PL^pro (K9N7C7 1436-1803 limits assumed): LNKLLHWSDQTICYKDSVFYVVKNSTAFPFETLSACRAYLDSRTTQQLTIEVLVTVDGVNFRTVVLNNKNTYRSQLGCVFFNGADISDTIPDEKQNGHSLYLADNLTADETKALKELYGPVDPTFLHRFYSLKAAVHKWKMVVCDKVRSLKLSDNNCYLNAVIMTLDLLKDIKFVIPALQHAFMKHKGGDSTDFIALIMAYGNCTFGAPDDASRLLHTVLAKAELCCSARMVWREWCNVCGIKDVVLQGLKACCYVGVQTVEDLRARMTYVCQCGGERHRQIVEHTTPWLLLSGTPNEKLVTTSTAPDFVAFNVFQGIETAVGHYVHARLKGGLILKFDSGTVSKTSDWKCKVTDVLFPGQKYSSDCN

Row | SMILES | IC50 [1] [µM] | IC50 [2] [µM] | Kd [3] [µM] | kon [3] [M⁻¹ s⁻¹] | koff [3] [s⁻¹] | SARS-CoV PL^pro, LRLRGG-AMC, Inhibition type [4] | IC50 [5] [µM] | melting point [°C] | IC50 ([2]; pH 6, read-out: MERS-CoV 3CL^pro, IC50) [µM] | IC50 ([5]; pH 5.5, read-out: MERS-CoV PL^pro, IC50) [µM]
1 | CC(C)=CCc1cc(C(=O)/C=C/c2ccc(O)cc2)c(O)cc1O [Compound 1, broussochalcone B] | 57.8 ± 0.5 | 27.9 ± 1.2 | 74 | 56 | 0.00412 | Noncompetitive (6.6 ± 0.5) | 113 ± 10.1 | – | – | –
2 | CC(C)=CCc1cc(C(=O)/C=C/c2ccc(O)c(O)c2)c(O)cc1O [Compound 2, broussochalcone A] | 88.1 ± 13 | 36.2 ± 0.4 | 130 | 29.9 | 0.00388 | noncompetitive inhibition; also recorded: Noncompetitive (8.0 ± 0.4) | 42.1 ± 5 | – | – | –
3 | CC1(C)C=Cc2cc(C(=O)/C=C/c3ccc(O)cc3)c(O)cc2O1 [Compound 3, 4-hydroxyisolonchocarpin] | 203 ± 3.9 | 194 ± 15.6 | – | – | – | Noncompetitive (27.7 ± 1.7) | 172 ± 10.2 | – | – | –
4 | CC(C)=CCc1cc(-c2oc3cc(O)c(CC=C(C)C)c(O)c3c(=O)c2O)cc(O)c1O [Compound 4, papyriflavonol A] | 104 ± 17.4 | 64.5 ± 4.9 | 212 | 21 | 0.00445 | noncompetitive inhibition; also recorded: Noncompetitive (5.9 ± 0.4) | 113 ± 7.3 | 202 to 204 | – | –
5 | CC(C)=CCc1cc(C2CCc3ccc(O)cc3O2)cc(O)c1O (stereo not drawn) [Compound 5, 3′-(3-methylbut-2-enyl)-3′,4′,7-trihydroxyflavane] | 30.2 ± 6.8 | 34.7 ± 2 | – | – | – | Noncompetitive (15.9 ± 0.8) | 48.8 ± 6.6 | – | – | –
6 | CC(C)=CCc1cc([C@@H]2CCc3ccc(O)cc3O2)c(CC=C(C)C)c(O)c1O [Compound 6, kazinol A] | 84.8 ± 10.4 | – | – | – | – | Noncompetitive (40.5 ± 3.4) | 88.5 ± 3.9 | – | – | –
7 | CC(C)=CCc1c([C@@H]2CCc3ccc(O)cc3O2)cc2c(c1O)OC(C)(C)C=C2 [Compound 7, kazinol B] | 233 ± 6.7 | – | – | – | – | Noncompetitive (36.7 ± 2.7) | 94.9 ± 13.1 | – | – | –
8 | CC(C)=CCc1c([C@@H]2CCc3ccc(O)cc3O2)cc2c(c1O)OC(C)(C)C(O)C2O (stereo partly drawn) [Compound 8, broussoflavan A] | 92.4 ± 2.1 | 126 ± 17.4 | – | – | – | Noncompetitive (23.4 ± 1.6) | 49.1 ± 7.5 | 238 to 240 | – | –
9 | CC(C)=CCc1c(CCCc2ccc(O)cc2O)cc(O)c(O)c1CC=C(C)C [Compound 9, kazinol F] | 43.3 ± 10.4 | 135 ± 5.1 | – | – | – | Noncompetitive (12.1 ± 0.7) | 39.5 ± 5.1 | – | – | –
10 | COc1cc(O)ccc1CCCc1cc(O)c(O)c(CC=C(C)C)c1CC=C(C)C [Compound 10, kazinol J] | 64.2 ± 1.7 | 109 ± 3.7 | 804 | 7.3 | 0.00591 | Noncompetitive (10.7 ± 0.9) | 55 ± 1.3 | – | – | –
11 | O=C(/C=C/c1ccc(O)cc1)c1ccc(O)cc1O [Isoliquiritigenin, isoliquiritigenin, reference compound] | 61.9 ± 11 | – | – | – | – | Noncompetitive (23.0 ± 0.9) | – | – | – | –
12 | O=c1c(O)c(-c2ccc(O)cc2)oc2cc(O)cc(O)c12 [Kaempferol, kaempferol, reference compound] | 116 ± 7.1 | 35.3 ± 5.3 | – | – | – | Noncompetitive (13.7 ± 0.8) | 206.6 ± 1.7 | – | – | –
13 | O=c1c(O)c(-c2ccc(O)c(O)c2)oc2cc(O)cc(O)c12 [Quercetin, quercetin, reference compound] | – | 34.8 ± 1.2 | – | – | – | Noncompetitive (7.0 ± 0.7) | – | – | – | –
14 | O=c1c(O[C@@H]2O[C@H](CO)[C@H](O)[C@H](O)[C@H]2O)c(-c2ccc(O)c(O)c2)oc2cc(O)cc(O)c12 [Quercetin-β-galactoside, quercetin-β-galactoside, reference compound] | – | – | – | – | – | Noncompetitive (56.1 ± 2.5) | – | – | 68 ± 2.4 | 129 ± 14.5
